Experimental data as given in ChEMBL document CHEMBL1143571 (J Med Chem, 2005).

Tests used:
[1] = molecular target: T1, D(3) dopamine receptor (Homo sapiens, UniProt P35462); assay type: cell-based, CHO
Description: Inhibition constant against [3H]-spiperone binding to human Dopamine receptor D3 expressed in CHO cells

[2] = molecular target: D(2) dopamine receptor (Rattus norvegicus) (UniProt P61169); experiment: Intrinsic activity to stimulate rat Dopamine receptor D2S mediated [3H]-thymidine incorporation into growing cells using mitogenesis assay
[3] = molecular target: T1, D(3) dopamine receptor
Description: Effective concentration to stimulate human Dopamine receptor D3 mediated [3H]-thymidine incorporation into growing cells using mitogenesis assay

[4] = molecular target: D(2) dopamine receptor (Rattus norvegicus) (UniProt P61169); experiment: Intrinsic activity to sitmulate rat Dopamine receptor D2L mediated [3H]thymidine incorporation into growing cells using mitogenesis assay
[5] = molecular target: T2, D(4) dopamine receptor (Homo sapiens, UniProt P21917); assay type: cell-based, CHO
T2 sequence (P21917 whole entry): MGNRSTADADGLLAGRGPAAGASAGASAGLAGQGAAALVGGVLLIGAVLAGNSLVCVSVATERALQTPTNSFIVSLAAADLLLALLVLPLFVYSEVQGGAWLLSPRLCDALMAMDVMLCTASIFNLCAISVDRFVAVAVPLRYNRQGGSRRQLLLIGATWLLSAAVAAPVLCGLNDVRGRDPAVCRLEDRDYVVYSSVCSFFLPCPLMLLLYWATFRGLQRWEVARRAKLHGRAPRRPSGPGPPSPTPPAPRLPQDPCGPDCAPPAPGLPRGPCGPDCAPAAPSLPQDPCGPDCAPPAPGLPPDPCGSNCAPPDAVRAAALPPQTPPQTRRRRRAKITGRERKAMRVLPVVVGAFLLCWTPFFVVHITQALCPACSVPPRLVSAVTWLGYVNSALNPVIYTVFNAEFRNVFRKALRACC
Description: High inhibition constant against [3H]spiperone binding to human Dopamine receptor D4.4 expressed in CHO cells

[6] = molecular target: T3, D(2) dopamine receptor (Homo sapiens, UniProt P14416); assay type: cell-based, CHO
T3 sequence (P14416 whole entry): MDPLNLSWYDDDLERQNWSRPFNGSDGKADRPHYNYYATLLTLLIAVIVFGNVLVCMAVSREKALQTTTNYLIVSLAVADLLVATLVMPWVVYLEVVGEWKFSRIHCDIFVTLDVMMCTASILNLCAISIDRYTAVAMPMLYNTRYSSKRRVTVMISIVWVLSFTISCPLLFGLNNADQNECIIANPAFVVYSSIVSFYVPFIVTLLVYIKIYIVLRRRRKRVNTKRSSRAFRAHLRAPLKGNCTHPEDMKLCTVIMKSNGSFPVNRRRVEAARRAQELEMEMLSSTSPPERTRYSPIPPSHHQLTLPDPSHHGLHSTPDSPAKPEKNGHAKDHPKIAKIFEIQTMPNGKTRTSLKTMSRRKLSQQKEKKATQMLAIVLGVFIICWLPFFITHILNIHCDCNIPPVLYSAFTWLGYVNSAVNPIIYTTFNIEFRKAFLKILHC

[7] = molecular target: T4, D(2) dopamine receptor (Rattus norvegicus, UniProt P61169); experiment: Effective concentration to stimulate rat Dopamine receptor D2S mediated [3H]thymidine incorporation into growing cells using mitogenesis assay
T4 sequence (P61169 whole entry): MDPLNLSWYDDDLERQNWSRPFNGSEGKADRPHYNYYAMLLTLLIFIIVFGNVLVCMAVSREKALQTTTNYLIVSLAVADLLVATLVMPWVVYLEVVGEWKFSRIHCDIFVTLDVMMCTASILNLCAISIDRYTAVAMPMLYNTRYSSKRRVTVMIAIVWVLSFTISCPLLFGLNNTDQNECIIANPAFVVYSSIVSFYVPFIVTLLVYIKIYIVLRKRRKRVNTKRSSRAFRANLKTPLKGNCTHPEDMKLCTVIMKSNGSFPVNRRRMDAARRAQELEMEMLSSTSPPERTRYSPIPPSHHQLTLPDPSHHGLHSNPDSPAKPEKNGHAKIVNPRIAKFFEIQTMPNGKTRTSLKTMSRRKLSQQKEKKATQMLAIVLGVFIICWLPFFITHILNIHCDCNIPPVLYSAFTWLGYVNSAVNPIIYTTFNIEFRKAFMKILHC

[8] = molecular target: T4, D(2) dopamine receptor; experiment: Effective concentration to stimulate rat Dopamine receptor D2L mediated [3H]thymidine incorporation into growing cells using mitogenesis assay
[9] = molecular target: T3, D(2) dopamine receptor; assay type: cell-based, CHO; remark: listed apart in the source
Description: High inhibition constant against [3H]spiperone binding to human Dopamine receptor D2L expressed in CHO cells

[10] = molecular target: T3, D(2) dopamine receptor; assay type: cell-based, CHO; remark: listed apart in the source
[11] = molecular target: D(1A) dopamine receptor (Bos taurus, UniProt Q95136); experiment: Inhibition constant against [3H]SCH-23390 binding to Dopamine receptor D1 in bovine striatal membranes; assay type: cell membranes, Striatum, Membrane
Chain of D(1A) dopamine receptor (Q95136 whole entry): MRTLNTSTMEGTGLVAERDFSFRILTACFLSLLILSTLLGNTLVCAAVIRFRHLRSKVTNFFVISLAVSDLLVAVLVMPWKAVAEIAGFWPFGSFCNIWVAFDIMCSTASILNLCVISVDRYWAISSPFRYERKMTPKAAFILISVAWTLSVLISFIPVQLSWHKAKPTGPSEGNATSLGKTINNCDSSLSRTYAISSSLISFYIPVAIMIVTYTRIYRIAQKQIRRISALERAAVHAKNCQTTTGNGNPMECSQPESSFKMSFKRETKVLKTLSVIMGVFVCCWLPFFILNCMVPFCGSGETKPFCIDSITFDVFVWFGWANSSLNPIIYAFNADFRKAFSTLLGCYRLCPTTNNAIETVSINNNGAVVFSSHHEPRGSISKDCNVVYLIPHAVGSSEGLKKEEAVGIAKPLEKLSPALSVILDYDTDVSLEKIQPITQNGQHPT

[12] = molecular target: T1, D(3) dopamine receptor; remark: listed apart in the source
[13] = molecular target: T1, D(3) dopamine receptor; remark: listed apart in the source
[14] = molecular target: T2, D(4) dopamine receptor; assay type: cell-based, CHO; remark: listed apart in the source
[15] = molecular target: T3, D(2) dopamine receptor; assay type: cell-based, CHO; remark: listed apart in the source
[16] = molecular target: T2, D(4) dopamine receptor
Description: Effective concentration to stimulate human Dopamine receptor D4.2 mediated [3H]thymidine incorporation into growing cells using mitogenesis assay

Chain of D(2) dopamine receptor (Rattus norvegicus) (P61169 whole entry): as the sequence (P61169 whole entry) above
T1 sequence (P35462 whole entry): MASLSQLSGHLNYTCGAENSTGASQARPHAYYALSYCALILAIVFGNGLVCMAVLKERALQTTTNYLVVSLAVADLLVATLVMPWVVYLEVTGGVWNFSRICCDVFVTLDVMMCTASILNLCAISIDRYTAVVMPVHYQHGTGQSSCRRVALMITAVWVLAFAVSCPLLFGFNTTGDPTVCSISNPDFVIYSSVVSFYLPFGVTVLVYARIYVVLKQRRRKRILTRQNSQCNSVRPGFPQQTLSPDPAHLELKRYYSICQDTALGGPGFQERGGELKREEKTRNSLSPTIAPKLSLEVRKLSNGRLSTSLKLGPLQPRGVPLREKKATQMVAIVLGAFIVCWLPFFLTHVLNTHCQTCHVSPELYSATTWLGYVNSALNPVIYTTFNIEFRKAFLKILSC

| Structure (SMILES) | Ki [1] [µM] | also measured |
| --- | --- | --- |
| CCCN(CCC)[C@@H]1CCn2c(C#N)ccc2C1 | 2.82 | – |
| CCCN(CCC)[C@H]1CCn2cc(C)cc2C1 | 0.794 | – |
| CCCN(CCC)[C@H]1CCn2c(ccc2C(=O)C(F)(F)F)C1 | 0.0229 | – |
| CCCN(CCC)[C@@H]1CCn2c(ccc2C(=O)OCC)C1 | 0.324 | – |
| CCCN(CCC)[C@@H]1CCn2ccc(CO)c2C1 | 0.324 | – |
| CCCN(CCC)[C@H]1CCn2c(C#N)ccc2C1 | 0.00724 | Intrinsic activity [2]: 95%; EC50 [3]: 0.0024 µM; Intrinsic activity [4]: 99%; Ki [5]: 0.04 µM; Ki [6]: 0.13 µM; EC50 [7]: 0.13 µM; EC50 [8]: 0.042 µM; Ki [9]: 0.19 µM; Ki [10]: 6.5 µM; Ki [11]: > 20 µM; Ki [12]: 0.0072 µM; Ki [13]: 0.14 µM; Ki [14]: 9.7 µM; Ki [15]: 5.1 µM |
| CCCN(CCC)[C@H]1CCn2c(/C=N/O)ccc2C1 | 0.0309 | – |
| CCCN(CCC)[C@@H]1CCn2c(/C=N/O)ccc2C1 | 2.09 | – |
| CCCN(CCC)[C@@H]1CCn2ccc(C)c2C1 | 1.45 | – |
| CCCN(CCC)[C@@H]1CCn2c(CO)ccc2C1 | 0.724 | – |
| CCCN(CCC)[C@H]1CCn2c(ccc2-c2ccccc2)C1 | 7.94 | – |
| CCCN(CCC)[C@@H]1CCn2c(C)ccc2C1 | 0.617 | – |
| CCCN(CCC)[C@H]1CCn2c(ccc2C(=O)OCC)C1 | 4.37 | – |
| CCCN(CCC)[C@@H]1CCn2c(C=C(C#N)C#N)ccc2C1 | 6.03 | – |
| CCCN(CCC)[C@H]1CCn2c(C=O)ccc2C1 | 0.00525 | Intrinsic activity [2]: 101%; EC50 [3]: 0.0011 µM; Intrinsic activity [4]: 98%; Ki [5]: 0.032 µM; Ki [6]: 0.041 µM; EC50 [7]: 0.079 µM; EC50 [8]: 0.011 µM; EC50 [16]: 4.2 µM; Ki [9]: 0.052 µM; Ki [10]: 6.9 µM; Ki [11]: > 20 µM; Ki [12]: 0.0053 µM; Ki [14]: 2.5 µM; Ki [15]: 3 µM |
| CCCN(CCC)[C@H]1CCn2ccc(C)c2C1 | 0.676 | – |
| CCCN(CCC)[C@H]1CCn2c(C)ccc2C1 | 0.417 | – |
| CCCN(CCC)[C@H]1CCn2c(C=C(C#N)C#N)ccc2C1 | 0.0603 | – |
| CCCN(CCC)[C@H]1CCn2c(/C=N\O)ccc2C1 | 0.049 | – |

| Structure (SMILES) | Ki [1] [µM] | also measured |
| --- | --- | --- |
| Oc1ccc2c(c1O)-c1cccc3c1[C@@H](C2)NCC3 | 0.0589 | – |
| CCCN(CCC)[C@@H]1CCn2c(ccc2CN(C)C)C1 | 12 | – |
| CCCN(CCC)[C@@H]1CCn2cc(C)cc2C1 | 0.912 | – |
| CCCN(CCC)[C@H]1CCn2cccc2C1 | 0.575 | – |
| CCCN(CCC)[C@H]1CCc2c(ccn2C=O)C1 | 0.0389 | – |
| CCCN[C@H]1CCc2nc(N)sc2C1 [PRAMIPEXOLE] | – | Intrinsic activity [2]: 103%; Intrinsic activity [4]: 85%; Ki [11]: > 20 µM |
| CCCN(CCC)[C@@H]1CCn2c(ccc2C(=O)C(Cl)(Cl)Cl)C1 | 0.0871 | – |
| CCCN(CCC)[C@@H]1CCc2c(ccn2C=O)C1 | 0.0437 | – |
| CCCN(CCC)[C@@H]1CCn2c(/C=N\O)ccc2C1 | 4.79 | – |
| CCCN(CCC)[C@@H]1CCn2cccc2C1 | 1.66 | – |
| CCCN(CCC)[C@@H]1CCn2c(ccc2C(=O)c2ccccc2)C1 | 1.55 | – |
| CCCN(CCC)[C@H]1CCn2c(ccc2C(=O)c2ccccc2)C1 | 1.91 | – |
| CCCN(CCC)[C@@H]1CCn2c(ccc2-c2ccccc2)C1 | 2.4 | – |
| CCCN(CCC)[C@@H]1CCn2c(ccc2C(C)=O)C1 | 2.82 | – |
| CCCN(CCC)[C@@H]1CCn2ccc(C=O)c2C1 | 0.501 | – |
| CCCN(CCC)[C@H]1CCn2c(ccc2C(=O)C(Cl)(Cl)Cl)C1 | 0.263 | – |
| CCCN(CCC)[C@@H]1CCn2c(ccc2C(=O)C(F)(F)F)C1 | 2.51 | – |
| CCCN(CCC)[C@H]1CCn2c(ccc2C(C)=O)C1 | 0.0457 | – |
| CCCN(CCC)[C@H]1CCn2c(ccc2CN(C)C)C1 | 3.63 | – |
